# PubChem BioAssay AID1963426 (Molecular Pharmacology Branch, DTP, NCI, 2024)
# System: 186277-243-T-J2-PDC complex spheroid growth, % test/control
# Experiment: Anticancer human tumor 186277-243-T-J2-PDC patient-derived colon adenocarcinoma cell line growth inhibition [Asc]
# Settings: for IC50: curve of first compound; for viability, T/C: stronger effect = lower value
# Procedure, shortened: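 Complex solid-tumor spheroids incorporating human endothelial and mesenchymal stem cells received single agents or combinations over half-log dilution ranges anchored to clinical Cmax.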
# [1] = second compound 0.1 µM, first compound 0.00316 µM
# [2] = second compound 0.1 µM, first compound 0.01 µM
# [3] = second compound 0.1 µM, first compound 0.0316 µM
# [4] = second compound 0.1 µM, first compound 0.1 µM
# [5] = second compound 0.316 µM, first compound 0.00316 µM
# [6] = second compound 0.316 µM, first compound 0.01 µM
# [7] = second compound 0.316 µM, first compound 0.0316 µM
# [8] = second compound 0.316 µM, first compound 0.1 µM
# [9] = second compound 1 µM, first compound 0.00316 µM
# [10] = second compound 1 µM, first compound 0.01 µM
# [11] = second compound 1 µM, first compound 0.0316 µM
# [12] = second compound 1 µM, first compound 0.1 µM
# [13] = second compound 0.1 µM, first compound 0.316 µM
# [14] = second compound 0.1 µM, first compound 1 µM
# [15] = second compound 0.316 µM, first compound 0.316 µM
# [16] = second compound 0.316 µM, first compound 1 µM
# [17] = second compound 1 µM, first compound 0.316 µM
# [18] = second compound 1 µM, first compound 1 µM
# [19] = second compound 3.16 µM, first compound 0.0316 µM
# [20] = second compound 3.16 µM, first compound 0.1 µM
# [21] = second compound 3.16 µM, first compound 0.316 µM
# [22] = second compound 3.16 µM, first compound 1 µM
# [23] = second compound 10 µM, first compound 0.0316 µM
# [24] = second compound 10 µM, first compound 0.1 µM
# [25] = second compound 10 µM, first compound 0.316 µM
# [26] = second compound 10 µM, first compound 1 µM
# 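Note: spheroids exposed to agents for 7 days.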
# 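Throughout, for viability, T/C: 100% = DMSO vehicle control wells.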
structure (smiles),measurement,setting,value
Cn1ncnc1[C@H]1c2n[nH]c(=O)c3cc(F)cc(c23)N[C@@H]1c1ccc(F)cc1 + CNC(C)C(=O)NC1CN(S(=O)(=O)c2cccc(S(=O)(=O)N3CCC4CCC(C(=O)NC(c5ccccc5)c5ccccc5)N4C(=O)C(NC(=O)C(C)NC)C3)c2)CCC2CCC(C(=O)NC(c3ccccc3)c3ccccc3)N2C1=O,IC50,second compound 0.01 µM,> 0.1 µM
same,IC50,second compound 0.0316 µM,> 0.1 µM
same,IC50,second compound 0.1 µM,> 0.1 µM
same,IC50,second compound 0.316 µM,> 0.1 µM
same,IC50,second compound 1 µM,> 0.1 µM
same,"viability, T/C","second compound 0.01 µM, first compound 0.000316 µM",100%
same,"viability, T/C","second compound 0.01 µM, first compound 0.001 µM",97.5%
same,"viability, T/C","second compound 0.01 µM, first compound 0.00316 µM",106%
same,"viability, T/C","second compound 0.01 µM, first compound 0.01 µM",119%
same,"viability, T/C","second compound 0.01 µM, first compound 0.0316 µM",144%
same,"viability, T/C","second compound 0.01 µM, first compound 0.1 µM",144%
same,"viability, T/C","second compound 0.0316 µM, first compound 0.000316 µM",108%
same,"viability, T/C","second compound 0.0316 µM, first compound 0.001 µM",103%
same,"viability, T/C","second compound 0.0316 µM, first compound 0.00316 µM",129%
same,"viability, T/C","second compound 0.0316 µM, first compound 0.01 µM",124%
same,"viability, T/C","second compound 0.0316 µM, first compound 0.0316 µM",133%
same,"viability, T/C","second compound 0.0316 µM, first compound 0.1 µM",155%
same,"viability, T/C","second compound 0.1 µM, first compound 0.000316 µM",121%
same,"viability, T/C","second compound 0.1 µM, first compound 0.001 µM",115%
same,"viability, T/C",[1],124%
same,"viability, T/C",[2],127%
same,"viability, T/C",[3],146%
same,"viability, T/C",[4],155%
same,"viability, T/C","second compound 0.316 µM, first compound 0.000316 µM",101%
same,"viability, T/C","second compound 0.316 µM, first compound 0.001 µM",101%
same,"viability, T/C",[5],108%
same,"viability, T/C",[6],128%
same,"viability, T/C",[7],147%
same,"viability, T/C",[8],159%
same,"viability, T/C","second compound 1 µM, first compound 0.000316 µM",91.3%
same,"viability, T/C","second compound 1 µM, first compound 0.001 µM",115%
same,"viability, T/C",[9],104%
same,"viability, T/C",[10],131%
same,"viability, T/C",[11],130%
same,"viability, T/C",[12],149%
O=C(c1ccc(F)c(F)c1Nc1ccc(I)cc1F)N1CC(O)([C@@H]2CCCCN2)C1 + Cc1c(S(C)(=O)=O)c(-c2cc(F)cc(N3CCN(c4ccc(NS(=O)(=O)c5ccc(NC(CCN6CCC(C(=O)OCCCP(=O)(O)O)CC6)CSc6ccccc6)c(S(=O)(=O)C(F)(F)F)c5)cc4)CC3)c2)c(-c2ccc(Cl)cc2)n1C(C)C,IC50,second compound 0.1 µM,0.0934 µM
same,IC50,second compound 0.316 µM,0.0733 µM
same,IC50,second compound 1 µM,0.0659 µM
same,IC50,second compound 3.16 µM,0.0578 µM
same,IC50,second compound 10 µM,0.052 µM
same,"viability, T/C",[1],95.5%
same,"viability, T/C",[2],92.4%
same,"viability, T/C",[3],107%
same,"viability, T/C",[4],47%
same,"viability, T/C",[13],9.22%
same,"viability, T/C",[14],4.73%
same,"viability, T/C",[5],101%
same,"viability, T/C",[6],97.8%
same,"viability, T/C",[7],88.8%
same,"viability, T/C",[8],35.7%
same,"viability, T/C",[15],5.96%
same,"viability, T/C",[16],2.79%
same,"viability, T/C",[9],102%
same,"viability, T/C",[10],99.2%
same,"viability, T/C",[11],103%
same,"viability, T/C",[12],20.7%
same,"viability, T/C",[17],2.79%
same,"viability, T/C",[18],1.09%
same,"viability, T/C","second compound 3.16 µM, first compound 0.00316 µM",93.5%
same,"viability, T/C","second compound 3.16 µM, first compound 0.01 µM",93.1%
same,"viability, T/C",[19],94.7%
same,"viability, T/C",[20],10.2%
same,"viability, T/C",[21],1.13%
same,"viability, T/C",[22],0.48%
same,"viability, T/C","second compound 10 µM, first compound 0.00316 µM",88.1%
same,"viability, T/C","second compound 10 µM, first compound 0.01 µM",93.5%
same,"viability, T/C",[23],82%
same,"viability, T/C",[24],7.98%
same,"viability, T/C",[25],4.2%
same,"viability, T/C",[26],0.52%
C#Cc1c(F)ccc2cc(O)cc(-c3ncc4c(N5CC6CCC(C5)N6)nc(OCC56CCCN5CC(F)C6)nc4c3F)c12 (stereo not given) + Cc1c(S(C)(=O)=O)c(-c2cc(F)cc(N3CCN(c4ccc(NS(=O)(=O)c5ccc(NC(CCN6CCC(C(=O)OCCCP(=O)(O)O)CC6)CSc6ccccc6)c(S(=O)(=O)C(F)(F)F)c5)cc4)CC3)c2)c(-c2ccc(Cl)cc2)n1C(C)C,IC50,second compound 0.1 µM,0.178 µM
same,IC50,second compound 0.316 µM,0.127 µM
same,IC50,second compound 1 µM,0.114 µM
same,IC50,second compound 3.16 µM,0.0919 µM
same,IC50,second compound 10 µM,0.0873 µM
same,"viability, T/C",[3],91.5%
same,"viability, T/C",[4],69.7%
same,"viability, T/C",[13],30.2%
same,"viability, T/C",[14],11.3%
same,"viability, T/C","second compound 0.1 µM, first compound 3.16 µM",6.43%
same,"viability, T/C","second compound 0.1 µM, first compound 10 µM",5.27%
same,"viability, T/C",[7],115%
same,"viability, T/C",[8],56.9%
same,"viability, T/C",[15],23.6%
same,"viability, T/C",[16],7.76%
same,"viability, T/C","second compound 0.316 µM, first compound 3.16 µM",3.89%
same,"viability, T/C","second compound 0.316 µM, first compound 10 µM",3.47%
same,"viability, T/C",[11],86.3%
same,"viability, T/C",[12],54%
same,"viability, T/C",[17],18.7%
same,"viability, T/C",[18],5.48%
same,"viability, T/C","second compound 1 µM, first compound 3.16 µM",2.03%
same,"viability, T/C","second compound 1 µM, first compound 10 µM",1.87%
same,"viability, T/C",[19],87%
same,"viability, T/C",[20],47.1%
same,"viability, T/C",[21],8.29%
same,"viability, T/C",[22],2.66%
same,"viability, T/C","second compound 3.16 µM, first compound 3.16 µM",1.51%
same,"viability, T/C","second compound 3.16 µM, first compound 10 µM",1.34%
same,"viability, T/C",[23],76.1%
same,"viability, T/C",[24],46.5%
same,"viability, T/C",[25],5.7%
same,"viability, T/C",[26],1.72%
same,"viability, T/C","second compound 10 µM, first compound 3.16 µM",0.91%
same,"viability, T/C","second compound 10 µM, first compound 10 µM",0.74%
